# Columns and labels:
# [1] = Plasma pharmacokinetics after oral dhBBR or BBR in rats; type: in vivo, SD rats; conditions: oral dhBBR 200 mg/kg
# Experimental: The plasma (100 μl) was precipitated with 100 μl of acetonitrile after addition of 10 μl of the internal standard. BBR served as a control in the study. The plasma concentrations of BBR and dhBBR were determined using LC-MS/MS 8040 and LC-MS/MS 8050.
# [2] = Transformation of dhBBR in pooled human intestinal microsomes (HIMs); type: in vitro ADME
# Experimental: The mixture was incubated at 37 °C with exposure to air for 2, 5 and 10 min and was terminated by the addition of 200 μl of ice-cold acetonitrile. Then, 20 μl of the internal standard was added to the mixture, and the mixture was centrifuged at 14,000 g for 5 min. Fifty microliters of the supernatant was injected into the HPLC instrument for analysis. The control samples were incubated under the same conditions but without HIMs.
# Caco-2 cells = assay: Absorption of BBR and dhBBR in Caco-2 cells; type: in vitro ADME; conditions: Caco-2
# Experimental: (§1) A Caco-2 cell assay was conducted using a method reported previously. […] To determine the rate of drug transport in the apical-to-basolateral direction, 200 μl of the compound working solution was added to the filter well (apical compartment), and 800 μl of HBSS was added to the receiver plate (basolateral compartment). Accordingly, to determine the rate of drug transport in the basolateral-to-apical direction, 800 μl of the compound working solution was added to each well of the receiver plate and 200 μl of HBSS was added to the filter well. The plates were incubated for 30 min at 37 °C with shaking at 150 rpm on a rotary shaker. At the end of the transport period, aliquots of 50 μl were removed directly from the apical and basolateral wells and transferred to wells of new plates. Four volumes of cold methanol containing internal standards were added into each well. The samples were centrifuged at 16,000 g for 15 min. Aliquots of 200 μl of the supernatant were used for the LC-MS/MS analysis.
# [3] = Absorption of BBR and dhBBR in Caco-2 cells; type: in vitro ADME; conditions: human
# Experimental: as §1
structure (smiles),measurement,setting,value
"COc1ccc2c(c1OC)CN1CCc3cc4c(cc3C1=C2)OCO4 [dhBBR, dihydroberberine]",AUC(0-t),"[1]; SD, rat, plasma, po, 200 mg/kg, Fig. 3b curve 2, read-out: AUC(0-t) of dhBBR in plasma",48.9 ng·h/mL
same,Cmax,"[1]; SD, rat, plasma, po, 200 mg/kg, Fig. 3b curve 2, read-out: Cmax of dhBBR in plasma",10.2 ng/mL
same,dhBBR level in plasma,[1],less than 10 ng/ml
same,dhBBR-to-BBR reversion,[2],very rapidly
same,fold Papp (AP-BL) of dhBBR over BBR,Caco-2 cells,11.9 fold
same,"efflux ratio at 30 min, 5 μM","[3]; Caco-2, pH 7.4, read-out: efflux ratio (ER)",1.58
same,"Papp A→B at 30 min, 5 μM","[3]; pH 7.4, Caco-2, 5 μM, 30 min",4.51 ×10⁻⁶ cm/s
